From patent US11542492B2 (Celgene CAR LLC, priority 2009, dated 2023) come the findings set out here.

The target in one test is T1, NS3/4A C159S (Hepatitis C virus genotype 1b, UniProt Q9WMX2, C1185S).
T1 construct: expressed in transfected cells
The experiment in a line: Lysine modification using biotinylated covalent probe in cell lysate. The note with it: FIG. 10, 1 μM probe, 1h. Format: binding, HCV. The text has this:
The pCI-Neo-FLAG-NS3/4a-WT plasmid was constructed by amplifying the NS3 and 4a sequence from the pFK-I389-luc-ubi-neo-NS3-3′ET vector using Accuprime Pfx (Invitrogen) according to manufacturer's instructions and with primers that added an NheI site and FLAG epitope tag to the 5′ end and an XbaI site to the 3′ end.
The resulting PCR product was then digested with NheI and XbaI and ligated into the same sites of the pCI-Neo vector (Invitrogen). The WT construct was then used as a template for site-directed mutagenesis using the Quickchange II Site-Directed Mutagenesis kit […] and primers containing the K136R or C159S mutations (below).
Lysates were treated with 1 μM of biotinylated covalent probe, XVI-27, for 1h and immunoprecipitated with anti-NS3 antibody (mouse). Immunoblots were probed with streptavidin and anti-NS3 antibody (goat). Successful modification by the covalent probe was assessed and quantified relative to WT NS3.

Test [1] concerns the target T2, recombinant human ML-IAPβ (Homo sapiens, UniProt Q96CA5).
T2 construct: purchased R&D Systems 818-IA
T2 sequence (Q96CA5 1-280 isoform Q96CA5-2): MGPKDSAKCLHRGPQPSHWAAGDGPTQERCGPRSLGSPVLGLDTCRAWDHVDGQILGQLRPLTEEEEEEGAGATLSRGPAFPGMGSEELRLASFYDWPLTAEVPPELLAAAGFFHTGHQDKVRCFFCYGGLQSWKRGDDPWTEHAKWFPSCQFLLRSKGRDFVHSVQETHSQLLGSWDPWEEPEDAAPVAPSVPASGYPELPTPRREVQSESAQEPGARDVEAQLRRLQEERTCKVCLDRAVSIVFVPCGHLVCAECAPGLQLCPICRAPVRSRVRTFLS
Description: Fluorescence polarization competition binding assay, ML-IAPβ. As to conditions: ML-IAP, 2 h. Here is the method:
(§1) Homogeneous, Fluorescence Polarization, Competition Binding Assay Protocol for Affinity Assessment of Compound Binding to XIAP, cIAP-1 and ML-IAPβ BIR3 Domains
(§2) 1× stocks of recombinant human XIAP; BIR3 domain (895-XB), recombinant human cIAP-1 (818-IA) or recombinant human ML-IAPβ (818-IA) from R&D Systems and Fluorescence Polarization (FP) assay tracer (Atto-647 tagged IAP inhibitor probe compound) were prepared in assay buffer consisting of 25 mM Tris-HCL, pH 7.5 (Sigma), 10 mM […] (Sigma), 1 mM DTT (Fluka) and 0.005% TritonX-100 (Pierce). While IAP protein and tracer equilibrated at ambient temp in the dark (30-60 min), 100× stocks of test compound were prepared in 50% DMSO:H2O, serially diluted and spotted (0.5 µL/well) in duplicate wells of a 384-well, flat bottom, polypropylene, black assay plate (Greiner #781209). […] Competition binding between test compounds and assay tracer was initiated by the addition of 50 µL/well of pre-equilibrated IAP protein and assay tracer. Displacement of the assay tracer was measured in a Synergy plate reader from BioTek (Winooski, Vt.) at λex620/λem680 through a 660 nm half-sized dicroich mirror and S/P polarizing filters every 30 min for 3 hr. (See Huang, X., Journal of Biomolecular Screening 8, 2003). The resulting compound dose response data were fit to a one-site binding Ki model in GraphPad Prism from GraphPad Software (San Diego, Calif.).

The next test addresses T3, XIAP (Homo sapiens, UniProt P98170).
T3 construct: recombinant human XIAP; BIR3 domain (895-XB)
Description: MALDI mass spectrometric analysis of intact XIAP incubated with compound. Format: binding. As to conditions: 18 hr, 10-fold excess of compound to protein. As for the experimental part:
Intact XIAP was incubated for 18 hr at a 10-fold excess of VII-1 to protein. 3ul aliquots of the samples were diluted with 10 ul of 0.1% TFA prior to micro C4 ZipTipping directly onto the MALDI target using Sinapinic acid as the desorption matrix (10 mg/mL in 0.1% TFA:Acetonitrile 50:50).
Intact XIAP was incubated for 18 hr at a 10-fold excess of VII-21 to protein. 3 ul aliquots of the samples were diluted with 10 ul of 0.1% TFA prior to micro C4 ZipTipping directly onto the MALDI target using Sinapinic acid as the desorption matrix (10 mg/mL in 0.1% TFA:Acetonitrile 50:50).

The target in another test is T4, recombinant human cIAP-1 (Homo sapiens, UniProt Q13490).
T4 construct: purchased R&D Systems 818-IA
T4 sequence (Q13490 whole entry): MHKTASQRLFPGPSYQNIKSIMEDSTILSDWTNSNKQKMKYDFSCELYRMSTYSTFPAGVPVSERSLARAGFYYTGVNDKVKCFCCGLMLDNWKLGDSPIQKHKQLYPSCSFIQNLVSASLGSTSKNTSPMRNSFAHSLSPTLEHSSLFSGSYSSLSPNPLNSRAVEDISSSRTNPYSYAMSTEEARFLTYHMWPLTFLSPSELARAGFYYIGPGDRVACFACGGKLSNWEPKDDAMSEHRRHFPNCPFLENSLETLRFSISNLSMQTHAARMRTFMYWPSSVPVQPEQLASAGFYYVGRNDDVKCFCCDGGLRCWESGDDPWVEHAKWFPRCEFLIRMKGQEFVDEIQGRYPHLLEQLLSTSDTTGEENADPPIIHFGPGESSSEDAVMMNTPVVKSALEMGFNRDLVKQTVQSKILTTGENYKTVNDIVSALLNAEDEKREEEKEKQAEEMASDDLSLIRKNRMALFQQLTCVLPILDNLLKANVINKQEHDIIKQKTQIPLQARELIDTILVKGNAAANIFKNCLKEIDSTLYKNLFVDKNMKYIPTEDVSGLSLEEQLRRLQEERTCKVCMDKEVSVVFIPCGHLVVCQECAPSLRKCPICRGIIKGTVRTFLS
Description: Fluorescence polarization competition binding assay, cIAP-1. As to conditions: c-IAP-1, 3 h. As for the experimental part: as §1, §2

Test [2] concerns the target T5, recombinant human XIAP; BIR3 domain (Homo sapiens, UniProt P98170).
T5 construct: recombinant human XIAP; BIR3 domain (895-XB); purchased R&D Systems 895-XB
Description: Fluorescence polarization competition binding assay, XIAP BIR3 domain. Here is the method:
as §1, §2

A further test relates to HCT116. Description: HCT116-WB assay. Format: cell-based. As to conditions: Homo sapiens, HCT-116; read-out: HCT116-WB Inhibition Designation.
The target of a further test is T6, p110α/p85α (PI3Kα) (Homo sapiens, UniProt P42336).
T6 construct: purchased BPS Bioscience or Millipore 40620 (BPS Bioscience) or 14-602 (Millipore)
T6 sequence (P42336 whole entry): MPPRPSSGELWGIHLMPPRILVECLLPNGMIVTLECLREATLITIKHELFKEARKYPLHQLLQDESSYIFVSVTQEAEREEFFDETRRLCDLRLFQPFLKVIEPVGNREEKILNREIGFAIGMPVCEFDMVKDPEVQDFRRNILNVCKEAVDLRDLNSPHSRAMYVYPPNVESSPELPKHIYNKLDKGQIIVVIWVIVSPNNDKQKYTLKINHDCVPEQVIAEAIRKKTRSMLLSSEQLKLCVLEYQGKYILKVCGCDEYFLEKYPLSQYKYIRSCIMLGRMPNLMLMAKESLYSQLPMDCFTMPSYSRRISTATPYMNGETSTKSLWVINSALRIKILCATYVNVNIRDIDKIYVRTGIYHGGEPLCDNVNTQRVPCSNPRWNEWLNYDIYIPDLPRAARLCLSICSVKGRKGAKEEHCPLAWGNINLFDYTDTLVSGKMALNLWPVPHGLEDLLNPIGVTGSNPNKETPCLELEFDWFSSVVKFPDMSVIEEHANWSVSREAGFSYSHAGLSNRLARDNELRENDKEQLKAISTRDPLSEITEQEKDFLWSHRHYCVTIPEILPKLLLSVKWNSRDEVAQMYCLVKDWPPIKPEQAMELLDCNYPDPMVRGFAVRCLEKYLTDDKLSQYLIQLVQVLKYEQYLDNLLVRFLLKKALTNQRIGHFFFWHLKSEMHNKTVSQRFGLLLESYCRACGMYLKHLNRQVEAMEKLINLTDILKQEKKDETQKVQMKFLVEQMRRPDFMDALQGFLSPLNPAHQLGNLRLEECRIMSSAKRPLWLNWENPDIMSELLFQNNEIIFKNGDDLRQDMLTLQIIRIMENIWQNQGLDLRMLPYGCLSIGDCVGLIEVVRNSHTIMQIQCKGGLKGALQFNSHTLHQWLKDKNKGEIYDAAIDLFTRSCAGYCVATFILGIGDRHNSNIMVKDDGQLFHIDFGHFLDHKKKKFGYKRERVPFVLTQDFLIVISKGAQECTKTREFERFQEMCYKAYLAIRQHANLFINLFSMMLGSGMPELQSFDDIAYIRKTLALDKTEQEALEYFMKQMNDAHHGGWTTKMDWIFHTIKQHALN
T6 sequence (P27986 whole entry partner): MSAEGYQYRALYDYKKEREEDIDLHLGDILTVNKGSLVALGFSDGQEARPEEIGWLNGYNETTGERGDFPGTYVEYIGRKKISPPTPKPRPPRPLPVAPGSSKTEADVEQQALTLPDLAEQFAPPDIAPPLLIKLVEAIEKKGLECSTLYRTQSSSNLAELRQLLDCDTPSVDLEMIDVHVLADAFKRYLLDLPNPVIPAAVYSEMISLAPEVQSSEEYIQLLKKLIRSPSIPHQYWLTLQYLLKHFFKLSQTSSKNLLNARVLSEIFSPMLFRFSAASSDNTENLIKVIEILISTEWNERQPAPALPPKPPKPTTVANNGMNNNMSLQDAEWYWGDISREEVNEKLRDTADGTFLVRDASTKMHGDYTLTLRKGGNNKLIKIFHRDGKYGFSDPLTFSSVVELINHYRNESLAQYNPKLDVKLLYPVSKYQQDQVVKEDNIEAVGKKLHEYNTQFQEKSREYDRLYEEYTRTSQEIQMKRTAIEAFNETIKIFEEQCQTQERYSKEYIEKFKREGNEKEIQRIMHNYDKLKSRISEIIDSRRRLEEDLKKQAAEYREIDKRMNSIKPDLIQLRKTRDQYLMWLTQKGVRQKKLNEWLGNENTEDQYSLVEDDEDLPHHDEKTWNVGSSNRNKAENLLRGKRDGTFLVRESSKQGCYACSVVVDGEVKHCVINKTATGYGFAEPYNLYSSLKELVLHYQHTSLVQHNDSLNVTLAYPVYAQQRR
Description: HTRF assay, p110α/p85α. Format: biochemical. As to conditions: read-out: PI3Kα-HTRF-IC50 nM Inhibition Designation.

In another test the target is T7, p120γ (PI3Kγ) (Homo sapiens, UniProt P48736).
T7 construct: purchased BPS Bioscience 40625
T7 sequence (P48736 whole entry): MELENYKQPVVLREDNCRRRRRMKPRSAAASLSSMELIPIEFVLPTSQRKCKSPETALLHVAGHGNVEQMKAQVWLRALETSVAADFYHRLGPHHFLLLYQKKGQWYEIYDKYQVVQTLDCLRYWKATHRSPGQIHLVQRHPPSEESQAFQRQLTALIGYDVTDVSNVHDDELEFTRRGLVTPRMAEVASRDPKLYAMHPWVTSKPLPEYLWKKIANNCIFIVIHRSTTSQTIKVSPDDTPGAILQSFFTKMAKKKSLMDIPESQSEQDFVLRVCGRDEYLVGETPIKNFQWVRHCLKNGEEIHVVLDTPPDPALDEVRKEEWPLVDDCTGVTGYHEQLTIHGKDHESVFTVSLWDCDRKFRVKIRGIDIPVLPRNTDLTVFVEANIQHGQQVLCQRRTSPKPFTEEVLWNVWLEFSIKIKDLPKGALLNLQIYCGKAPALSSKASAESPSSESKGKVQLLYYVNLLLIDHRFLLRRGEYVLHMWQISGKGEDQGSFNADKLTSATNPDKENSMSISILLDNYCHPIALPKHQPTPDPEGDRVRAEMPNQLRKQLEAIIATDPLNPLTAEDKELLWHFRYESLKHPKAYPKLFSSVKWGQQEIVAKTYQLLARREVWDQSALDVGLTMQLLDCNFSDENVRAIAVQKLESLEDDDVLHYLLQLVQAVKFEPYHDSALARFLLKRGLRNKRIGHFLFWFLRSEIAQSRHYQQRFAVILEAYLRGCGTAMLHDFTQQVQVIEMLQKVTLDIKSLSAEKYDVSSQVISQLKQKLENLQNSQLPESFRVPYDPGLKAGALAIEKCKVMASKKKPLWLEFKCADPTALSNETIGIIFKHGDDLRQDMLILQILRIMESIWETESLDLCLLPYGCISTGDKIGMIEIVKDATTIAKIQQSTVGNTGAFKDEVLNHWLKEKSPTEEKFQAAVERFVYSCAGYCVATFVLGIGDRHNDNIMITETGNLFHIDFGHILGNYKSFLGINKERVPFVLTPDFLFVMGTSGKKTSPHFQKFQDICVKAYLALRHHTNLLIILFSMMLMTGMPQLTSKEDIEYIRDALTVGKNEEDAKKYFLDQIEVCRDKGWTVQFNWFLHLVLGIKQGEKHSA
Description: HTRF assay, p120γ. As to conditions: PI3Kγ; read-out: PI3Kγ HTRF IC50 Inhibition Designation. Format: biochemical. In a few lines:
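End-point competition-binding HTRF with 1-4 nM enzyme and 10 μM di-C8-PIP2, pre-incubated with compound 30 min at 25° C, then 50 μM ATP for 15-30 min at 25° C. HTRF ratio (665/620 nm) gave % inhibition; IC50 from variable-slope log-dose fit.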

In a further test the target is T8, p110β/p85α (PI3Kβ) (Homo sapiens, UniProt P42338).
T8 construct: purchased Millipore 14-603
T8 sequence (P42338 whole entry): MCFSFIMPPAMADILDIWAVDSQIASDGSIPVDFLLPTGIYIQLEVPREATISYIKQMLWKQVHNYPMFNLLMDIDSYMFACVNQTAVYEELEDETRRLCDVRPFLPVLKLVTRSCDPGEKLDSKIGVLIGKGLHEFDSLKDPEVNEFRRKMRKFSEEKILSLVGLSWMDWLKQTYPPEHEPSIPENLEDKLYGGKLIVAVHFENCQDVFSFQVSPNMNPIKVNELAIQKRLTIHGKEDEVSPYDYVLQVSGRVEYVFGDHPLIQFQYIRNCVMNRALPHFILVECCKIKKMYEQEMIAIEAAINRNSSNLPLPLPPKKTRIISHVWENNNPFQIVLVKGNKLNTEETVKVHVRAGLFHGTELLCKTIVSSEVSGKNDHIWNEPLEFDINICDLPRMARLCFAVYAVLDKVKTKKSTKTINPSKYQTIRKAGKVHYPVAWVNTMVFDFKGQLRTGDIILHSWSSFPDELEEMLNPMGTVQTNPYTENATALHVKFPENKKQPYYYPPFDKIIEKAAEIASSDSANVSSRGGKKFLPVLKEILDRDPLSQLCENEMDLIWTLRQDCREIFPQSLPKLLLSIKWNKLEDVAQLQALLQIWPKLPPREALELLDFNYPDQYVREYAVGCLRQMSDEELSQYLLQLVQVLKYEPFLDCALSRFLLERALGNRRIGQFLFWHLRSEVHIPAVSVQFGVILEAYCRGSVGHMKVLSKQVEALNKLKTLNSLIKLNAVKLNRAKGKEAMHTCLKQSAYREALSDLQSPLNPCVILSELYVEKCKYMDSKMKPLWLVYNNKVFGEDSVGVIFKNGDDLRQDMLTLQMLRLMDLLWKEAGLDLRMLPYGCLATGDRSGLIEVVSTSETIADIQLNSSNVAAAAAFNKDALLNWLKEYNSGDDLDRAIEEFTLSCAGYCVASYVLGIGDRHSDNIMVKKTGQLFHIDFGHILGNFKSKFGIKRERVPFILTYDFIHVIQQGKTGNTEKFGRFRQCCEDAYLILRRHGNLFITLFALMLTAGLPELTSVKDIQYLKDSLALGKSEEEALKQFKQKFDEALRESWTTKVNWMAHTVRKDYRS
T8 sequence (P27986 whole entry partner): as the sequence (P27986 whole entry partner) above
The experiment in a line: HTRF assay, p110β/p85α. Format: biochemical. As to conditions: read-out: PI3Kβ HTRF IC50 Inhibition Designation. Here is the method:
The mechanics of the assay platform are best described by the vendor (Millipore, Billerica, Mass.) on their website at the following URL: http://www.millipore.com/coa/tech1/74jt4z.
Briefly, Stop solution (Stop A, #33-007 and Stop B, #33-009; 3:1 ratio) and Detection Mix (DMC, #33-015 with DMA, #33-011 and DMB, #33-013; 18:1:1 ratio) were prepared as recommended by the manufacturer ˜2 hrs prior to use. […] Lipid kinase reactions were started with the addition of 5 μL of ATP solution, mixed for 15 sec on a rotary plate shaker and incubated for 15-30 minutes at 25° C. Next, reactions were stopped with a 5 μL addition of Stop solution followed by a 5 μL volume of Detection Mix. […] At the conclusion of each assay, the HTRF ratio from fluorescence emission values for each well was calculated and % Inhibition determined from averaged controls wells. % Inhibition values for each compound re then plotted against inhibitor concentration to estimate IC50 from log [Inhibitor] vs Response, Variable Slope model in GraphPad Prism from GraphPad Software (San Diego, Calif.).

In another test the target is PI3Kγ (Homo sapiens, UniProt P48736). The experiment in a line: MALDI MS of intact PI3Kγ incubated with compound. Format: binding. The note with it: 1 hr, 10-fold excess, 37° C. Here is the method:
Intact PI3Kγ was incubated for 1 hr at a 10-fold excess of compound XXII-33 to protein at 37° C. 5 μL aliquots of the samples were diluted with 10 μL of 0.1% TFA prior to micro C4 Ziptipping directly onto the MALDI target plate using sinapinic acid as the desorption matrix (10 mg/mL in 0.1% TFA:Acetonitrile 50:50).

Where only a bound is given, the exact number is not on record here.

T5 sequence (P98170 252-356 limits assumed): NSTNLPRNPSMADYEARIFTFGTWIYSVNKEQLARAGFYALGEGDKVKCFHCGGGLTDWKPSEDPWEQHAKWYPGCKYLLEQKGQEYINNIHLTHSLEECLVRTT
T3 sequence (P98170 252-356 limits assumed): as above
Sequence of PI3Kγ (P48736 whole entry): as the sequence (P48736 whole entry) above

For `C=C[C@H]1C[C@@]1(NC(=O)[C@@H]1CC(Oc2nccc3cc(OC)ccc23)CN1C(=O)[C@H](CCC(=O)N1C[C@@H]2C[C@H]1C(=O)O2)NC(=O)CCCC(=O)NCCCOCCOCCOCCCNC(=O)CCCC[C@@H]1SC[C@@H]2NC(=O)N[C@@H]21)C(=O)NS(=O)(=O)C1CC1` (stereo partly drawn) [XVI-27, N1-((2S)-1-((2S)-2-((1S,2R)-1-(cyclopropylsulfonylcarbamoyl)-2-vinylcyclopropylcarbamoyl)-4-(6-methoxyisoquinolin-1-yloxy)pyrrolidin-1-yl)-1,5-dioxo-5-((1S,4S)-3-oxo-2-oxa-5-azabicyclo[2.2.1]heptan-5-yl)pentan-2-yl)-N5-(15-oxo-19-((3aS,4S,6aR)-2-oxohexahydro-1H-thieno[3,4-d]imidazol-4-yl)-4,7,10-trioxa-14-azanonadecyl)glutaramide], the “modification by covalent probe” value on NS3/4A C159S is listed as “modifying NS3/4A C159S”.
For `C=CC(=O)Nc1cccc(CNC(=O)[C@@H]2CC[C@@H]3CCCC[C@H](NC(=O)[C@H](C)NC)C(=O)N32)c1` [VII-1, (3S,6S,10aS)-N-(3-acrylamidobenzyl)-6-((S)-2-(methylamino)propanamido)-5-oxodecahydropyrrolo[1,2-a]azocine-3-carboxamide], in test [1], the Ki was in the range of 100 to 1000 nM. Further, on XIAP, the “mass shift of XIAP” value came out at 417 Da and the “modification of XIAP” value is reported as “complete modification”. The inhibitory constant (Ki) at recombinant human cIAP-1 fell in the range of 100 to 1000 nM. In [2], the “Ki XIAP” value amounted to 161 nM.
On to `C=CC(=O)Nc1cccc(CNC(=O)[C@@H]2CC[C@@H]3CCCC[C@H](NC(=O)[C@H](C)N(C)C(=O)OC(C)(C)C)C(=O)N32)c1` [VII-2], for which the inhibition constant Ki (in [1]; on recombinant human cIAP-1) was greater than 10000 nM in each case. Further, the “Ki XIAP” value in [2] is on record as > 10,000 nM. Besides, the “Ki (XIAP) Inhibition Designation” value in test [2] (XIAP) is on record as “E (IC50≥10,000 nM)”.
With `CN[C@@H](C)C(=O)N[C@H]1CCCC[C@H]2CC[C@@H](C(=O)NCc3cccc(NC(=O)[C@H]4CCC(=O)O4)c3)N2C1=O` [VII-21], the Ki in test [1] was in the range of 1000 to 10000 nM. Further, at XIAP, the “mass shift of XIAP” value worked out at 522 Da and the “modification of XIAP” value is “complete modification”. Further, the inhibition constant (Ki) on recombinant human cIAP-1 was in the range of 100 to 1000 nM.
With `CN(Cc1cc2nc(-c3cccc(O)c3)nc(N3CCOCC3)c2s1)C(=O)[C@@H]1CCC(=O)O1` [XXII-6], the IC50 fell in the range of 10 to 100 nM in the test on HCT116, 10 to 100 nM at p110α/p85α (PI3Kα) and 100 to 1000 nM at p120γ (PI3Kγ).
With `CN(Cc1cc2nc(-c3cccc(O)c3)nc(N3CCOCC3)c2s1)C(=O)[C@H]1CCC(=O)O1` [XXII-7], the IC50 lay in the range of 10 to 100 nM in the test with HCT116, 100 to 1000 nM at p110α/p85α (PI3Kα) and 100 to 1000 nM at p120γ (PI3Kγ).
Turning to `Nc1ncc(-c2nc(N3CCOCC3)c3sc(CN4CCN(C(=O)C5CC(=O)CC(=O)C5)CC4)cc3n2)cn1` [XXII-33, 5-(4-((2-(2-aminopyrimidin-5-yl)-4-morpholinothieno[3,2-d]pyrimidin-6-yl)methyl)piperazine-1-carbonyl)cyclohexane-1,3-dione], the IC50 at p110β/p85α (PI3Kβ) lay within 100 to 1000 nM. Also, on PI3Kγ, the “mass shift of PI3Kγ” value came out at 492 Da, the “mass shift of PI3Kγ as percent” value amounted to 90% and the “modification of PI3Kγ” value was “complete modification”. The IC50 at p120γ (PI3Kγ) was in the range of 100 to 1000 nM.
